In patent publication US5455222A, “1-substituted-5-thiomethylthiocyanato-1H-tetrazoles, compositions containing them and their use as antimicrobial and marine antifouling agents” (The Dow Chemical Company, priority 1994, dated 1995):
Values after ≈ are worked out from the molar mass of the structure shown.

How the values were obtained:
[1] = tested on: Staphylococcus aureus (Sa); assay: Minimum inhibitory concentration (MIC), bacteria in nutrient agar; type: cell-based, Staphylococcus aureus ATCC 6538; conditions: 48 hours
Description: (§1) The minimum inhibitory concentration (MIC) for the compounds listed in Table I is determined for 9 bacteria, using nutrient agar, and 7 yeast and fungi, using malt yeast agar. A one percent solution of the test compound is prepared in a mixture of acetone and water.
(§2) Nutrient agar is prepared at pH 6.8, representing a neutral medium, and at pH 8.2, representing an alkaline medium. The nutrient agars are prepared by adding 23 g of nutrient agar to one liter of deionized water. In addition, the alkaline medium is prepared by adjusting a 0.04M solution of N-[tris-(hydroxymethyl)methyl]glycine buffered deionized water with concentrated sodium hydroxide to a pH of 8.5.
(§3) The test tubes containing the agar are cooled in a water bath until the temperature of the agar is 48° C. Then, an appropriate amount of the one percent solution of the test compound is added (except in the controls where no compound is added) to the respective test tubes so that the final concentrations are 500, 250, 100, 50, 25, 10, 5, 2.5, 1.0 and zero parts per million of the test compound in the agar, thus having a known concentration of test compound dispersed therein. The contents of the test tubes are then transferred to respective petri plates. After drying for 24 hours, the petri plates containing nutrient agar are inoculated with bacteria and those containing malt yeast agar are inoculated with yeast and fungi.
(§4) The inoculation with bacteria is accomplished by using the following procedure. Twenty-four hour-cultures of each of the bacteria are prepared by incubating the respective bacteria in tubes containing nutrient broth for 24 hours at 30° C. in a shaker. Dilutions of each of the 24 hour-cultures are made so that nine separate suspensions (one for each of the nine test bacteria) are made, each containing 10^8 colony forming units (CFU) per mL of suspension of a particular bacteria. Aliquots of 0.3 mL of each of the bacterial suspensions are used to fill the individual wells of Steer's Replicator. For each microbial suspension, 0.3 mL was used to fill three wells (i.e., three wells of 0.3 mL each) so that for the nine different bacteria, 27 wells are filled. The Steer's Replicator is then used to inoculate both the neutral and alkaline pH nutrient agar petri plates.
(§5) The inoculated petri plates are incubated at 30° C. for 48 hours and then read to determine if the test compound which is incorporated into the agar prevented growth of the respective bacteria.
(§6) Table II lists the bacteria, yeast and fungi used in the MIC test described above along with their respective American Type Culture Collection (ATCC) identification numbers.
(§7) In Tables III and IV, the MIC values of the compounds described in Table I as compared to the MIC of a standard commercial preservative (with 1-(3-chloroallyl)-3,5,7-triaza-1-azoniaadamantane chloride as the active agent and referred to in Tables III and IV as "STANDARD I") are set forth for the bacteria organisms and yeast/fungi organisms which are listed in Table II.

Bacillus subtilis (Bs) = assay: as above; type: cell-based, Bacillus subtilis ATCC 8473; conditions: 48 hours
Description: as §1, §2, §3, §4, §5, §6, §7

[2] = tested on: Pseudomonas aeruginosa (PRD-10); assay: as above; type: cell-based, Pseudomonas aeruginosa ATCC 15442; conditions: 48 hours
Description: as §1, §2, §3, §4, §5, §6, §7

[3] = tested on: Salmonella choleraesuis (Sc); assay: as above; type: cell-based, Salmonella choleraesuis ATCC 10708; conditions: Salmonella enterica, 48 hours
Description: as §1, §2, §3, §4, §5, §6, §7

Fusarium oxysporum (Fo) = assay: Minimum inhibitory concentration (MIC), yeast/fungi in malt yeast agar; type: cell-based, Fusarium oxysporum ATCC 48112; conditions: 30° C., 72 hours for fungi
Description: as §1
(§8) Malt yeast agar is prepared by adding 3 g yeast extract and 45 g malt agar per liter of deionized water. The specific agar is dispensed in 30 mL aliquots into 25×200 mm test tubes, capped and autoclaved for 15 minutes at 115° C.
as §3
(§9) The inoculation with the yeast and fungi is accomplished as follows. Cultures of yeast and fungi are incubated for seven days on malt yeast agar at 30° C. These cultures are used to prepare suspensions by the following procedure. A suspension of each organism is prepared by adding 10 mL of sterile saline and 10 microliters of octylphenoxy polyethoxy ethanol to the agar slant of yeast or fungi. The sterile saline/octylphenoxy polyethoxy ethanol solution is then agitated with a sterile swab to suspend the microorganism grown on the slant. Each resulting suspension is diluted into sterile saline (1 part suspension to 9 parts sterile saline). Aliquots of these dilutions are placed in individual wells of Steer's Replicator and petri plates inoculated as previously described. The petri plates are incubated at 30° C. and read after 48 hours for yeast and 72 hours for fungi.
as §6, §7

Aspergillus niger (An) = assay: as above; type: cell-based, Aspergillus niger ATCC 16404; conditions: 30° C., 72 hours for fungi
Description: as §1, §8, §3, §9, §6, §7

Proteus vulgaris (Pv) = assay: Minimum inhibitory concentration (MIC), bacteria in nutrient agar; type: cell-based, Proteus vulgaris ATCC 881; conditions: 48 hours
Description: as §1, §2, §3, §4, §5, §6, §7

[4] = tested on: Enterobacter aerogenes (Ea); assay: as above; type: cell-based, Enterobacter aerogenes ATCC 13048; conditions: Klebsiella aerogenes, 48 hours
Description: as §1, §2, §3, §4, §5, §6, §7

[5] = tested on: Saccharomyces cerevisiae (Sc); assay: Minimum inhibitory concentration (MIC), yeast/fungi in malt yeast agar; type: cell-based, Saccharomyces cerevisiae ATCC 4105; conditions: 30° C., 48 hours for yeast
Description: as §1, §8, §3, §9, §6, §7

[6] = tested on: Pseudomonas aeruginosa (Pa); assay: Minimum inhibitory concentration (MIC), bacteria in nutrient agar; type: cell-based, Pseudomonas aeruginosa ATCC 10145; conditions: nutrient agar pH 8.2, 30° C., 48 hours
Description: as §1, §2, §3, §4, §5, §6, §7

[7] = tested on: Aureobasidium pullulan (Ap); assay: Minimum inhibitory concentration (MIC), yeast/fungi in malt yeast agar; type: cell-based, Aureobasidium pullulan ATCC 16622; conditions: 30° C., read after 48 hours for yeast and 72 hours for fungi
Description: as §1, §8, §3, §9, §6, §7

[8] = tested on: Penicillium chrysogenum (Pc); assay: as above; type: cell-based, Penicillium chrysogenum ATCC 9480; conditions: 30° C., 72 hours for fungi
Description: as §1, §8, §3, §9, §6, §7

Trichoderma viride (Tv) = assay: as above; type: cell-based, Trichoderma viride ATCC 8678; conditions: 30° C., 72 hours for fungi
Description: as §1, §8, §3, §9, §6, §7

Candida albicans (Ca) = assay: as above; type: cell-based, Candida albicans ATCC 10231; conditions: 30° C., 48 hours for yeast
Description: as §1, §8, §3, §9, §6, §7

[9] = tested on: Klebsiella pneumoniae (Kp); assay: Minimum inhibitory concentration (MIC), bacteria in nutrient agar; type: cell-based, Klebsiella pneumoniae ATCC 8308; conditions: 48 hours
Description: as §1, §2, §3, §4, §5, §6, §7

Escherichia coli (Ec) = assay: as above; type: cell-based, Escherichia coli ATCC 11229; conditions: 48 hours
Description: as §1, §2, §3, §4, §5, §6, §7

Compound	MIC ([1]; nutrient agar pH 6.8, 30° C.) [µg/mL]	MIC ([1]; nutrient agar pH 8.2, 30° C.) [µg/mL]	MIC (Bacillus subtilis (Bs); nutrient agar pH 6.8, 30° C.) [µg/mL]	MIC (Bacillus subtilis (Bs); nutrient agar pH 8.2, 30° C.) [µg/mL]	MIC ([2]; nutrient agar pH 6.8, 30° C.) [µg/mL]	MIC ([2]; nutrient agar pH 8.2, 30° C.) [µg/mL]	MIC ([3]; nutrient agar pH 6.8, 30° C.) [µg/mL]	MIC ([3]; nutrient agar pH 8.2, 30° C.) [µg/mL]	MIC (Fusarium oxysporum (Fo)) [µg/mL]	MIC (Aspergillus niger (An)) [µg/mL]	MIC (Proteus vulgaris (Pv); nutrient agar pH 6.8, 30° C.) [µg/mL]	MIC (Proteus vulgaris (Pv); nutrient agar pH 8.2, 30° C.) [µg/mL]	MIC ([4]; nutrient agar pH 6.8, 30° C.) [µg/mL]	MIC ([4]; nutrient agar pH 8.2, 30° C.) [µg/mL]	MIC [5] [µg/mL]	MIC [7] [µg/mL]	MIC [8] [µg/mL]	MIC (Trichoderma viride (Tv)) [µg/mL]	MIC (Candida albicans (Ca)) [µg/mL]	MIC ([9]; nutrient agar pH 6.8, 30° C.) [µg/mL]	other results
N#CSCSc1nnnn1-c1ccc(C#N)cc1 [XII, 1-(4-Cyanophenyl)-5-thiomethylthiocyanato-1H-tetrazole]	20 (≈ 72.9 µM)	100 (≈ 365 µM)	< 10	40 (≈ 146 µM)	500 (≈ 1820 µM)	400 (≈ 1460 µM)	500 (≈ 1820 µM)	400 (≈ 1460 µM)	20 (≈ 72.9 µM)	< 10	100 (≈ 365 µM)	200 (≈ 729 µM)	500 (≈ 1820 µM)	> 400	40 (≈ 146 µM)	< 10	< 10	40 (≈ 146 µM)	200 (≈ 729 µM)	100 (≈ 365 µM)	MIC [6]: 200 µg/mL (≈ 729 µM); MIC ([9]; nutrient agar pH 8.2, 30° C.): 100 µg/mL (≈ 365 µM); MIC (Escherichia coli (Ec); nutrient agar pH 6.8, 30° C.): 200 µg/mL (≈ 729 µM); MIC (Escherichia coli (Ec); nutrient agar pH 8.2, 30° C.): 400 µg/mL (≈ 1460 µM)
COc1ccc(-n2nnnc2SCSC#N)cc1 [VIII, 1-(4-Methoxyphenyl)-5-thiomethylthiocyanato-1 H-tetrazole]	25 (≈ 89.5 µM)	100 (≈ 358 µM)	< 10	25 (≈ 89.5 µM)	100 (≈ 358 µM)	500 (≈ 1790 µM)	250 (≈ 895 µM)	500 (≈ 1790 µM)	< 10	< 10	250 (≈ 895 µM)	500 (≈ 1790 µM)	250 (≈ 895 µM)	500 (≈ 1790 µM)	< 10	< 10	< 10	25 (≈ 89.5 µM)	25 (≈ 89.5 µM)	250 (≈ 895 µM)	MIC [6]: 100 µg/mL (≈ 358 µM); MIC ([9]; nutrient agar pH 8.2, 30° C.): 100 µg/mL (≈ 358 µM); MIC (Escherichia coli (Ec); nutrient agar pH 6.8, 30° C.): 100 µg/mL (≈ 358 µM); MIC (Escherichia coli (Ec); nutrient agar pH 8.2, 30° C.): 500 µg/mL (≈ 1790 µM)
Cc1ccc(-n2nnnc2SCSC#N)cc1 [VII, 1-(4-Methylphenyl)-5-thiomethylthiocyanato-1H-tetrazole]	25 (≈ 94.9 µM)	50 (≈ 190 µM)	< 10	< 10	500 (≈ 1900 µM)	250 (≈ 949 µM)	> 500	> 500	5 (≈ 19 µM)	2.5 (≈ 9.49 µM)	100 (≈ 380 µM)	250 (≈ 949 µM)	> 500	> 500	< 1	< 1	< 1	10 (≈ 38 µM)	10 (≈ 38 µM)	250 (≈ 949 µM)	MIC ([9]; nutrient agar pH 8.2, 30° C.): 100 µg/mL (≈ 380 µM); MIC (Escherichia coli (Ec); nutrient agar pH 6.8, 30° C.): 500 µg/mL (≈ 1900 µM); MIC (Escherichia coli (Ec); nutrient agar pH 8.2, 30° C.): 500 µg/mL (≈ 1900 µM)
